The record followed here is ChEMBL document CHEMBL6074659, “Development of an Intravenously Stable Disulfide-Rich Peptide for the Treatment of Chemotherapy-Induced Neuropathic Pain” (J Med Chem, 2024).

The structures appear in SMILES notation. Starred links: 1 amine or outer side, 2 acyl side, 3 side chain; linkers in the order of their positions; H or OH if unused. Positions of bridges follow the written chain, without caps; N, C: chain ends. Non-standard residues stand in square brackets, D forms with d. Residues, ends and D or L forms follow the SMILES beside them. Triazole bridges read from a SMILES are 1,4-linked. Aha = [N-]=[N+]=NCC[C@H](N)C(=O)O; Pra = C#CC[C@H](N)C(=O)O; Dap = NC[C@H](N)C(=O)O; CH2 = C([*:1])[*:2] Bounds are passed on as bounds.

As a reminder, the inhibition is the percentage by which the read-out fell short of the control.

The target of one data set is Neuronal acetylcholine receptor; alpha9/alpha10 (Homo sapiens) (UniProt Q9UGM1+Q9GZZ6). Put plainly: Antagonist activity at human alpha9alpha10 nAChR expressed in acetylcholine-induced Xenopus laevis oocytes assessed as inhibition of acetylcholine-induced current at 10 nM at -80 mV holding potential incubated for 5 mins by two electrode voltage-clamp assay relative to control. It counts as cell-based. The settings on record: Oocyte. (Two-electrode voltage clamp holds a large cell at a set potential and records current.)
In the case of `CC[C@H](C)[C@@H]1NC(=O)[C@H](CC(=O)O)NC(=O)[C@@H]2CCCN2C(=O)[C@H](CC(N)=O)NC(=O)[C@H](CC(N)=O)NC(=O)[C@H](C(C)C)NC(=O)[C@H](CO)NC(=O)[C@@H]2CSSC[C@H](NC(=O)CN)C(=O)N[C@@H](CCC(=O)NCC[C@@H](C(N)=O)NC1=O)C(=O)N[C@@H](CN)C(=O)N[C@@H](Cc1cnc[nH]1)C(=O)N1CCC[C@H]1C(=O)N[C@@H](C)C(=O)N2` (HELM PEPTIDE1{G.C.E.[NC[C@H](N[*:1])C(=O)[*:2]].H.P.A.C.S.V.N.N.P.D.I.[Dab].[am]}$PEPTIDE1,PEPTIDE1,2:R3-8:R3|PEPTIDE1,PEPTIDE1,3:R3-16:R3$$$V2.0), the inhibition was below 5%.
On the same count and under the same terms, with `CC[C@H](C)[C@@H]1NC(=O)[C@H](CC(=O)O)NC(=O)[C@@H]2CCCN2C(=O)[C@H](CC(N)=O)NC(=O)[C@H](CC(N)=O)NC(=O)[C@H](C(C)C)NC(=O)[C@H](CO)NC(=O)[C@@H]2CSSC[C@@H]3NC(=O)CNC(=O)[C@@H](N)CCNC(=O)C[C@@H](C(N)=O)NC(=O)[C@H](CSSC[C@H](NC3=O)C(=O)N[C@@H](CN)C(=O)N[C@@H](Cc3cnc[nH]3)C(=O)N3CCC[C@H]3C(=O)N[C@@H](C)C(=O)N2)NC1=O` (HELM PEPTIDE1{[Dab].G.C.C.[NC[C@H](N[*:1])C(=O)[*:2]].H.P.A.C.S.V.N.N.P.D.I.C.D.[am]}$PEPTIDE1,PEPTIDE1,1:R3-18:R3|PEPTIDE1,PEPTIDE1,3:R3-9:R3|PEPTIDE1,PEPTIDE1,4:R3-17:R3$$$V2.0) the figure was below 5%; with `CC[C@H](C)[C@@H]1NC(=O)[C@H](CC(=O)O)NC(=O)[C@@H]2CCCN2C(=O)[C@H](CC(N)=O)NC(=O)[C@H](CC(N)=O)NC(=O)[C@H](C(C)C)NC(=O)[C@H](CO)NC(=O)[C@@H]2CSSC[C@H](NC(=O)CN)C(=O)N[C@@H](Cc3cn(nn3)CC[C@@H](C(N)=O)NC1=O)C(=O)N[C@@H](CN)C(=O)N[C@@H](Cc1cnc[nH]1)C(=O)N1CCC[C@H]1C(=O)N[C@@H](C)C(=O)N2` (H-GC[Pra][Dap]HPACSVNNPDI[Aha]-NH2; disulfide 2-8; triazole 3-16), below 15%; with `CC[C@H](C)[C@@H]1NC(=O)[C@H](CC(=O)O)NC(=O)[C@@H]2CCCN2C(=O)[C@H](CC(N)=O)NC(=O)[C@H](CC(N)=O)NC(=O)[C@H](C(C)C)NC(=O)[C@H](CO)NC(=O)[C@@H]2CSSC[C@@H]3NC(=O)CNC(=O)[C@@H](N)CCNC(=O)CC[C@@H](C(N)=O)NC(=O)[C@H](CSSC[C@H](NC3=O)C(=O)N[C@@H](CN)C(=O)N[C@@H](Cc3cnc[nH]3)C(=O)N3CCC[C@H]3C(=O)N[C@@H](C)C(=O)N2)NC1=O` (HELM PEPTIDE1{[Dab].G.C.C.[NC[C@H](N[*:1])C(=O)[*:2]].H.P.A.C.S.V.N.N.P.D.I.C.E.[am]}$PEPTIDE1,PEPTIDE1,1:R3-18:R3|PEPTIDE1,PEPTIDE1,3:R3-9:R3|PEPTIDE1,PEPTIDE1,4:R3-17:R3$$$V2.0), below 5%.
On the same count and under the same terms, the figure for `CC[C@H](C)[C@@H]1NC(=O)[C@H](CC(=O)O)NC(=O)[C@@H]2CCCN2C(=O)[C@H](CC(N)=O)NC(=O)[C@H](CC(N)=O)NC(=O)[C@H](C(C)C)NC(=O)[C@H](CO)NC(=O)[C@@H]2CSSC[C@H](NC(=O)CN)C(=O)N[C@@H](CCNC(=O)C[C@@H](C(N)=O)NC1=O)C(=O)N[C@@H](CN)C(=O)N[C@@H](Cc1cnc[nH]1)C(=O)N1CCC[C@H]1C(=O)N[C@@H](C)C(=O)N2` (HELM PEPTIDE1{G.C.[Dab].[NC[C@H](N[*:1])C(=O)[*:2]].H.P.A.C.S.V.N.N.P.D.I.D.[am]}$PEPTIDE1,PEPTIDE1,2:R3-8:R3|PEPTIDE1,PEPTIDE1,3:R3-16:R3$$$V2.0) is below 5%.
Same read-out and setting: with `CC[C@H](C)[C@@H]1NC(=O)[C@H](CC(=O)O)NC(=O)[C@@H]2CCCN2C(=O)[C@H](CC(N)=O)NC(=O)[C@H](CC(N)=O)NC(=O)[C@H](C(C)C)NC(=O)[C@H](CO)NC(=O)[C@@H]2CSSC[C@H](NC(=O)CN)C(=O)N[C@@H](CCn3cc(nn3)C[C@@H](C(N)=O)NC1=O)C(=O)N[C@@H](CN)C(=O)N[C@@H](Cc1cnc[nH]1)C(=O)N1CCC[C@H]1C(=O)N[C@@H](C)C(=O)N2` (H-GC[Aha][Dap]HPACSVNNPDI[Pra]-NH2; disulfide 2-8; triazole 3-16) the figure was below 15%.
Regarding `CC[C@H](C)[C@@H]1NC(=O)[C@H](CC(=O)O)NC(=O)[C@@H]2CCCN2C(=O)[C@H](CC(N)=O)NC(=O)[C@H](CC(N)=O)NC(=O)[C@H](C(C)C)NC(=O)[C@H](CO)NC(=O)[C@@H]2CSCSC[C@@H]3NC(=O)CNC(=O)[C@@H](N)CCC(=O)NCC[C@@H](C(N)=O)NC(=O)[C@H](CSSC[C@H](NC3=O)C(=O)N[C@@H](CN)C(=O)N[C@@H](Cc3cnc[nH]3)C(=O)N3CCC[C@H]3C(=O)N[C@@H](C)C(=O)N2)NC1=O` (HELM PEPTIDE1{E.G.C.C.[NC[C@H](N[*:1])C(=O)[*:2]].H.P.A.C.S.V.N.N.P.D.I.C.[Dab].[am]}|CHEM1{[C([*:1])[*:2]]}$PEPTIDE1,PEPTIDE1,1:R3-18:R3|PEPTIDE1,CHEM1,3:R3-1:R1|PEPTIDE1,CHEM1,9:R3-1:R2|PEPTIDE1,PEPTIDE1,4:R3-17:R3$$$V2.0), the inhibition is below 5%.

The same data set, now with this note: Oocyte, filed as antagonist.
Consider `CC[C@H](C)[C@@H]1NC(=O)[C@H](CC(=O)O)NC(=O)[C@@H]2CCCN2C(=O)[C@H](CC(N)=O)NC(=O)[C@H](CC(N)=O)NC(=O)[C@H](C(C)C)NC(=O)[C@H](CO)NC(=O)[C@@H]2CSSC[C@@H]3NC(=O)CNC(=O)CNC(=O)CNC(=O)[C@H](C)NC(=O)[C@H](C)NC(=O)CNC(=O)CNC(=O)[C@H](CSSC[C@H](NC3=O)C(=O)N[C@@H](CN)C(=O)N[C@@H](Cc3cnc[nH]3)C(=O)N3CCC[C@H]3C(=O)N[C@@H](C)C(=O)N2)NC1=O` (HELM PEPTIDE1{A.A.G.G.G.C.C.[NC[C@H](N[*:1])C(=O)[*:2]].H.P.A.C.S.V.N.N.P.D.I.C.G.G}$PEPTIDE1,PEPTIDE1,6:R3-12:R3|PEPTIDE1,PEPTIDE1,7:R3-20:R3|PEPTIDE1,PEPTIDE1,1:R1-22:R2$$$V2.0), for which the inhibition is above 85%.

Test system in another data set: not listed separately
The experiment in a line: Stability in human serum assessed as parent compound remaining incubated at 24 hrs by RP-HPLC analysis. To be noted: human serum, read-out: Stability. It is filed as ADME, cell-free.
On to `CC[C@H](C)[C@@H]1NC(=O)[C@H](CC(=O)O)NC(=O)[C@@H]2CCCN2C(=O)[C@H](CC(N)=O)NC(=O)[C@H](CC(N)=O)NC(=O)[C@H](C(C)C)NC(=O)[C@H](CO)NC(=O)[C@@H]2CSCSC[C@@H]3NC(=O)CNC(=O)[C@@H](N)CCC(=O)NC[C@@H](C(N)=O)NC(=O)[C@H](CSSC[C@H](NC3=O)C(=O)N[C@@H](CN)C(=O)N[C@@H](Cc3cnc[nH]3)C(=O)N3CCC[C@H]3C(=O)N[C@@H](C)C(=O)N2)NC1=O` (H-EGCC[Dap]HPACSVNNPDIC[Dap]-NH2; lactam 1-18; linker 3-9 via CH2; disulfide 4-17), for which the remaining at 24 h amounted to 57.3%.
As to `CC[C@H](C)[C@@H]1NC(=O)[C@H](CC(=O)O)NC(=O)[C@@H]2CCCN2C(=O)[C@H](CC(N)=O)NC(=O)[C@H](CC(N)=O)NC(=O)[C@H](C(C)C)NC(=O)[C@H](CO)NC(=O)[C@@H]2CSSC[C@@H]3NC(=O)CNC(=O)CNC(=O)CNC(=O)[C@H](C)NC(=O)[C@H](C)NC(=O)CNC(=O)CNC(=O)[C@H](CSSC[C@H](NC3=O)C(=O)N[C@@H](CN)C(=O)N[C@@H](Cc3cnc[nH]3)C(=O)N3CCC[C@H]3C(=O)N[C@@H](C)C(=O)N2)NC1=O` (HELM PEPTIDE1{A.A.G.G.G.C.C.[NC[C@H](N[*:1])C(=O)[*:2]].H.P.A.C.S.V.N.N.P.D.I.C.G.G}$PEPTIDE1,PEPTIDE1,6:R3-12:R3|PEPTIDE1,PEPTIDE1,7:R3-20:R3|PEPTIDE1,PEPTIDE1,1:R1-22:R2$$$V2.0), the remaining at 24 h worked out at 43.3%.
Regarding `CC[C@H](C)[C@@H]1NC(=O)[C@H](CC(=O)O)NC(=O)[C@@H]2CCCN2C(=O)[C@H](CC(N)=O)NC(=O)[C@H](CC(N)=O)NC(=O)[C@H](C(C)C)NC(=O)[C@H](CO)NC(=O)[C@@H]2CSSC[C@H](NC(=O)CN)C(=O)N[C@@H](CCC(=O)NC[C@@H](C(N)=O)NC1=O)C(=O)N[C@@H](CN)C(=O)N[C@@H](Cc1cnc[nH]1)C(=O)N1CCC[C@H]1C(=O)N[C@@H](C)C(=O)N2` (HELM PEPTIDE1{G.C.E.[NC[C@H](N[*:1])C(=O)[*:2]].H.P.A.C.S.V.N.N.P.D.I.[O=C([C@H](CN[*:3])N[*:1])[*:2]].[am]}$PEPTIDE1,PEPTIDE1,2:R3-8:R3|PEPTIDE1,PEPTIDE1,3:R3-16:R3$$$V2.0), the remaining at 24 h came to 57.3%.
